System: HCV genotype-1a variant with glutamine 30 changed to glutamate in the NS5A protein
Assay type: cell-based
Details: test compound titrated with BMS-790052 fixed at 200 nM; genotype 1a Q30E replicon
Excerpt: The NS5A synergistic inhibitory effect of test compounds can be determined using various amounts of an NS5A-targeting compound with titration of a second compound of interest. […] In one embodiment, the HCV genotype strain can be genotype 1a containing a change at amino acid 30 of the NS5A protein consisting of glutamine to glutamate. The test compound can be chosen from compounds listed above or from others present in the literature.

Row | SMILES | Fold-Synergistic 1a (Q30E) [fold]
1 | CCCCOC(=O)N[C@@H](C(=O)N[C@H](c1ncc(-c2ccc(-c3ccc(-c4cnc([C@@H](NC(=O)[C@H](NC(=O)OCCCC)C(C)C)C(C)C)[nH]4)cc3)cc2)[nH]1)C(C)C)C(C)C [Compound S-249] | >100
2 | COC(=O)N(C)C1(C(=O)N[C@H](c2ncc(-c3ccc(-c4cc5ccc(-c6cnc([C@@H](NC(=O)C7(N(C)C(=O)OC)CC7)C(C)(C)C)[nH]6)cc5o4)cc3)[nH]2)C(C)(C)C)CC1.O=C(O)C(F)(F)F [Compound B63] | >10
3 | CC(C)(C)[C@H](NC(=O)C(=O)N1CC(F)(F)C1)c1nc(-c2ccc(-c3ccc(-c4c[nH]c([C@@H](NC(=O)C(=O)N5CC(F)(F)C5)C(C)(C)C)n4)cc3)cc2)c[nH]1 [Compound W-28] | >100
4 | COCC(=O)N[C@H](c1ncc(-c2ccc(-c3ccc(-c4cnc([C@@H](NC(=O)COC)C(C)C)[nH]4)cc3)cc2)[nH]1)C(C)C [Compound S-13] | >10
5 | CC(C)(C(=O)N[C@H](c1nc(-c2ccc(-c3ccc(-c4c[nH]c([C@@H](NC(=O)C(C)(C)C(O)C5CCC(F)(F)CC5)C(C)(C)C)n4)cc3)cc2)c[nH]1)C(C)(C)C)C(O)C1CCC(F)(F)CC1 (single isomer, unassigned) [Compound N-143C] | >100
6 | CC(C)(C)[C@H](NC(=O)C1CC2(C1)CC(F)(F)C2)c1nc(-c2ccc(-c3ccc(-c4c[nH]c([C@@H](NC(=O)C5CC6(C5)CC(F)(F)C6)C(C)(C)C)n4)cc3)cc2)c[nH]1 [Compound P-46] | >100
7 | CC1(C)C2CCC(C(=O)N[C@H](c3nc(-c4ccc(-c5ccc(-c6c[nH]c([C@@H](NC(=O)C78CCC(C7)C(C)(C)C8O)C7(C)CC7)n6)cc5)cc4)c[nH]3)C3(C)CC3)(C2)C1O (single isomer, unassigned) [Compound Y-119] | >100
8 | CC(C)(C)OC(=O)N1CCC(C)(C)[C@H]1C(=O)N[C@H](c1nc(-c2ccc(-c3ccc(-c4c[nH]c([C@@H](NC(=O)[C@H]5N(C(=O)OC(C)(C)C)CCC5(C)C)C(C)(C)C)n4)cc3)cc2)c[nH]1)C(C)(C)C [Compound W-214] | >100
9 | CC(C)[C@H](NC(=O)N1CCOCC1)c1ncc(-c2ccc(-c3ccc(-c4cnc([C@@H](NC(=O)N5CCOCC5)C(C)C)[nH]4)cc3)cc2)[nH]1 [Compound S-231] | >10
10 | CC(C)(C(=O)N[C@H](c1nc(-c2ccc(-c3ccc(-c4c[nH]c([C@@H](NC(=O)C(C)(C)C(O)C5CCC(F)(F)CC5)C(C)(C)C)n4)cc3)cc2)c[nH]1)C(C)(C)C)C(O)C1CCC(F)(F)CC1 (single isomer, unassigned) [Compound N-143B] | >100
11 | CC1([C@H](NC(=O)C(C)(C)C(C)(C)O)c2nc3ccc(C#Cc4ccc5nc([C@@H](NC(=O)C(C)(C)C(C)(C)O)C6(C)CC6)[nH]c5c4)cc3[nH]2)CC1 [Compound B68] | >100
12 | CC(C)(C)[C@H](NC(=O)C1CCC(F)(F)CC1)c1ncc(C#Cc2ccc3cc(-c4cnc([C@@H](NC(=O)C5CCC(F)(F)CC5)C(C)(C)C)[nH]4)ccc3c2)[nH]1 [Compound B1] | >100
13 | COC(=O)N1C2CCC1(C(=O)N[C@H](c1nc(-c3ccc(-c4ccc(-c5c[nH]c([C@@H](NC(=O)C67CCC(CC6)N7C(=O)OC)C(C)(C)C)n5)cc4)cc3)c[nH]1)C(C)(C)C)CC2.O=C(O)C(F)(F)F.O=C(O)C(F)(F)F [Compound W-117] | >100
14 | CC(C)[C@H](NC(=O)C1CCCC1)c1ncc(-c2ccc(-c3ccc(-c4cnc([C@@H](NC(=O)C5CCCC5)C(C)C)[nH]4)cc3)cc2)[nH]1 [Compound S-23] | >100
15 | CC(C)(C)C(NC(=O)C1(O)CCC1)c1nc(-c2ccc(-c3ccc(-c4c[nH]c(C(NC(=O)C5(O)CCC5)C(C)(C)C)n4)cc3)cc2)c[nH]1 [Compound L-71] | >100
16 | CC(C)(C)C(NC(=O)C(C)(C)C(O)C1CC1)c1nc(-c2ccc(-c3ccc(-c4c[nH]c(C(NC(=O)C(C)(C)C(O)C5CC5)C(C)(C)C)n4)cc3)cc2)c[nH]1 (mixture of isomers) [Compound N-148] | >100
17 | Cc1onc(-c2ccccc2)c1C(=O)N[C@H](c1ncc(-c2ccc(-c3ccc(-c4cnc([C@@H](NC(=O)c5c(-c6ccccc6)noc5C)C(C)C)[nH]4)cc3)cc2)[nH]1)C(C)C [Compound S-85] | >100
18 | CC(C)(C)OC(=O)N1CCCCC1(C)C(=O)N[C@H](c1nc(-c2ccc(-c3ccc(-c4c[nH]c([C@@H](NC(=O)C5(C)CCCCN5C(=O)OC(C)(C)C)C(C)(C)C)n4)cc3)cc2)c[nH]1)C(C)(C)C (single isomer, unassigned) [Compound L-46c] | >100
19 | CC(C)[C@H](NC(=O)C12CCC(C1)C(C)(C)C2O)c1nc(-c2ccc(-c3ccc(-c4c[nH]c([C@@H](NC(=O)C56CCC(C5)C(C)(C)C6O)C(C)C)n4)cc3)cc2)c[nH]1 (single isomer, unassigned) [Compound Y-115] | >100

Row | SMILES | Fold-Synergistic 1a (Q30E) [fold]
20 | CC(C)CC(=O)N1[C@@H]2C[C@@H]2C[C@H]1c1nc(-c2ccc(-c3ccc(-c4c[nH]c([C@@H]5C[C@H]6C[C@H]6N5C(=O)CC(C)C)n4)cc3)cc2)c[nH]1 [Compound P-50] | <10
21 | CC(C)CC(=O)NC1(c2ncc(-c3ccc(-c4ccc(-c5cnc(C6(NC(=O)CC(C)C)CCCCC6)[nH]5)cc4)cc3)[nH]2)CCCCC1.O=C(O)C(F)(F)F.O=C(O)C(F)(F)F [Compound N-24] | <10
22 | CC(C)(C)[C@H](NC(=O)C1CCC(F)(F)CC1)c1nc2c([nH]1)-c1ccc(-c3ccc4c(c3)CCc3nc([C@@H](NC(=O)C5CCC(F)(F)CC5)C(C)(C)C)[nH]c3-4)cc1CC2 [Compound B23] | >100
23 | CC(C)[C@H](NC(=O)c1c(F)cccc1F)c1ncc(-c2ccc(-c3ccc(-c4cnc([C@@H](NC(=O)c5c(F)cccc5F)C(C)C)[nH]4)cc3)cc2)[nH]1 [Compound S-64] | >100
24 | Cc1cc(-c2ccc(-c3c[nH]c([C@@H](NC(=O)C4(C)CCCC4)C(C)C)n3)cc2)ccc1-c1c[nH]c([C@@H](NC(=O)C2(C)CCCC2)C(C)C)n1.O=C(O)C(F)(F)F [Compound N-80] | >100
25 | CC(C)[C@H](NC(=O)C(C)(C)F)c1nc(-c2ccc(-c3ccc(-c4c[nH]c([C@@H](NC(=O)C(C)(C)F)C(C)C)n4)cc3F)cc2)c[nH]1.O=C(O)C(F)(F)F [Compound N-97] | >100
26 | CC(O)C1(C(=O)N[C@H](c2nc(-c3ccc(-c4ccc(-c5c[nH]c([C@@H](NC(=O)C6(C(C)O)CCCCC6)C(C)(C)C)n5)cc4)cc3)c[nH]2)C(C)(C)C)CCCCC1 (single isomer, unassigned) [Compound N-152C] | >100
27 | CC(C)CC(=O)N[C@H](c1ncc(-c2ccc(-c3ccc(-c4cnc([C@@H]5CCCN5C(=O)CC(C)C)[nH]4)cc3)cc2)[nH]1)C(C)C [Compound Y-16] | >10
28 | CC(C)CC(=O)NC1(c2ncc(-c3ccc(-c4ccc(-c5cnc(C6(NC(=O)CC(C)C)CCCC6)[nH]5)cc4)cc3)[nH]2)CCCC1.O=C(O)C(F)(F)F.O=C(O)C(F)(F)F [Compound N-12] | <10
29 | CN(C)C(=O)C(=O)N[C@H](c1nc(-c2ccc(-c3ccc(-c4c[nH]c([C@@H](NC(=O)C(=O)N(C)C)C(C)(C)C)n4)cc3)cc2)c[nH]1)C(C)(C)C [Compound W-10] | >100
30 | CC(C)[C@H](NC(=O)C1CC(=O)C1)c1nc(-c2ccc(-c3ccc(-c4c[nH]c([C@@H](NC(=O)C5CC(=O)C5)C(C)C)n4)cc3)cc2)c[nH]1 [Compound W-172] | >10
31 | CC(C)[C@H](NC(=O)C(C)(C)F)c1ncc(-c2ccc(-c3ccc(-c4cnc([C@@H](NC(=O)C(C)(C)F)C(C)(C)C)[nH]4)cc3)cc2)[nH]1 [Compound Y-48] | >100
32 | CC(C)(C)OC(=O)NC1CCC(C(=O)N[C@H](c2nc(-c3ccc(-c4ccc(-c5c[nH]c([C@@H](NC(=O)C6CCC(NC(=O)OC(C)(C)C)CC6)C(C)(C)C)n5)cc4)cc3)c[nH]2)C(C)(C)C)CC1 (stereo partly shown) [Compound S-270] | >100
33 | CC(C)[C@H](NC(=O)[C@@H](C)c1ccccc1)c1ncc(-c2ccc(-c3ccc(-c4cnc([C@@H](NC(=O)[C@@H](C)c5ccccc5)C(C)C)[nH]4)cc3)cc2)[nH]1 [Compound P-62] | >100
34 | CC(C)[C@H](NC(=O)C1CCC(F)(F)CC1)c1ncc(-c2ccc(-c3ccc(-c4cnc([C@@H](NC(=O)C5CCC(F)(F)CC5)C(C)C)n4C)cc3)cc2)n1C [Compound B-200] | <10
35 | CC(C)C(=O)N[C@H](c1ncc(-c2ccc(-c3ccc(-c4cnc([C@@H](NC(=O)C(C)C)C(C)C)[nH]4)cc3)cc2)[nH]1)C(C)C [Compound S-7] | >100
36 | CC(C)[C@H](NC(=O)C(C)(C)C(F)(F)F)c1ncc(-c2ccc(-c3ccc(-c4cnc([C@@H](NC(=O)C(C)(C)C(F)(F)F)C(C)C)[nH]4)cc3)cc2)[nH]1 [Compound P-87] | >100
37 | CC(C)[C@H](NC(=O)c1nn(C)c2ccccc12)c1ncc(-c2ccc(-c3ccc(-c4cnc([C@@H](NC(=O)c5nn(C)c6ccccc56)C(C)C)[nH]4)cc3)cc2)[nH]1 [Compound P-96] | >100

Reference: patent US20160158200A1, “Combinations of Hepatitis C Virus Inhibitors” (priority 2013, published 2016)
